Results from patent publication US20250282799A1, “SUBSTITUTED PYRIDO[4,3-d]PYRIMIDINES AS KRAS MODULATORS” (Alterome Therapeutics, Inc., priority 2023, published 2025).
pIC50: −log10 of the molar value.

What was measured:
[1] = system: KRAS G12V dependent lung adenocarcinoma cell line, NCI-H441; assay: Cellular pERK (Thr202/Tyr204) FRET/HTRF assay; type: cell-based; conditions: Homo sapiens, NCI-H441, cellular pERK (Thr202/Tyr204) HTRF, NCI-H441 cells
Procedure, shortened: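 Read-out is a wash-free FRET sandwich immunoassay for endogenous ERK1/2 phosphorylated on Thr202/Tyr204. Signal was measured in NCI-H441 lung adenocarcinoma cells after 1 hr compound exposure at 37 °C. IC50 values come from fitted concentration-response curves.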

[2] = Pharmacokinetic evaluation, single dosing (oral and intravenous) in rats; type: in vivo, male Sprague-Dawley rats; design: unit not given here; conditions: rat, plasma
Experimental: Pharmacokinetic profile for test compound was measured by single dosing in male Sprague-Dawley rats. Animal weights were typically over 200 grams, and animals were allowed to acclimate to their new environment for at least 3 days prior to the initiation of any studies. One set of animals was dosed intravenous with test compound, 2 mg/kg in 20% PEG400, 10% HS-15 Solutol, 70% 50 mM citrate buffer (pH 4.0). Intravenous dosing solution concentration was 1.0 mg/mL. Time of blood sampling was 5 minutes, 15 minutes, 30 minutes, 1 hour, 2 hours, 4 hours, 8 hours, and 24 hours following intravenous dosing. Another set of animals was dosed orally with test compound, 30 mg/kg in 20% PEG400, 10% HS-15 Solutol, 70% 50 mM citrate buffer (pH 4.0). Oral dosing solution concentration was 3.0 mg/mL. Time of blood sampling was 15 minutes, 30 minutes, 1 hour, 2 hours, 4 hours, 8 hours, and 24 hours following oral dosing. Blood samples (˜0.2 mL/sample) were collected via jugular vein and placed in tubes containing Heparin-Na. The blood samples in tubes were mixed and then placed on wet ice prior to centrifugation for plasma. The blood samples were centrifuged at 4000 g for 5 minutes at 4° C. to obtain plasma. The obtained plasma was separated and stored frozen at approximately −80° C.
All the plasma samples were analyzed using a Shimadzu (DGU-405) HPLC with an API 6500+MS/MS system following the manufacturer's instructions. All the analytes were detected with positive-mode electrospray ionization (ES+). A standard curve for each test compound was generated and used to measure test compound concentrations in the rat plasma samples. Based on the time course sampling, an area under the curve (AUC) was calculated for the oral group and intravenous group. The percentage of rat bioavailability is calculated based on the equation shown below.
where F is bioavailability, AUCPO is area under curve of oral dosing, AUCIV is area under curve of intravenous dosing, DoseIV is the intravenous dose and DosePO is the oral dose. The oral dosing for the experiments presented in Table 5 was performed at 10 mg/kg unless noted otherwise.

Compound	pIC50 [1]	IV (dose 2 mg/kg) (AUC/D) (h*mg/mL) [2]	PO (dose 10 mg/kg) (AUC/D) (h*mg/mL) ([2]; oral)	PO (AUC/D) (h*mg/mL), dose 30 mg/kg ([2]; oral, dose 30 mg/kg)
[2H]C([2H])(Oc1nc(N2CCCC[C@H]3[C@H](F)[C@H]32)c2cnc(-c3cc(O)cc4ccc(F)c(C#C)c34)c(F)c2n1)[C@@]12CCCN1C[C@H](F)C2 [Example 216, 5-ethynyl-6-fluoro-4-(8-fluoro-4-((1S,7R,8S)-8-fluoro-2-azabicyclo[5.1.0]octan-2-yl)-2-(((2R,7aS)-2-fluorotetrahydro-1H-pyrrolizin-7a(5H)-yl)methoxy-d2)pyrido[4,3-d]pyrimidin-7-yl)naphthalen-2-ol]	> 7.30	96	0.0	–
[2H]C([2H])(Oc1nc(N2CCOC[C@H]3[C@H](F)[C@H]32)c2cnc(-c3cc(O)cc4ccc(F)c(C#C)c34)c(F)c2n1)[C@@]12CCCN1C[C@H](F)C2 [Example 217, 5-Ethynyl-6-fluoro-4-(8-fluoro-4-((1S,7S,8S)-8-fluoro-5-oxa-2-azabicyclo[5.1.0]octan-2-yl)-2-(((2R,7aS)-2-fluorotetrahydro-1H-pyrrolizin-7a(5H)-yl)methoxy-d2)pyrido[4,3-d]pyrimidin-7-yl)naphthalen-2-ol]	> 7.30	143	–	0.5
[2H]C([2H])(Oc1nc(N2CCOC[C@H]3[C@H](F)[C@H]32)c2cnc(-c3cc(O)cc4ccc(Cl)c(C#C)c34)c(F)c2n1)[C@@]12CCCN1C[C@H](F)C2 [Example 260, 6-chloro-5-ethynyl-4-(8-fluoro-4-((1S,7S,8S)-8-fluoro-5-oxa-2-azabicyclo[5.1.0]octan-2-yl)-2-(((2R,7aS)-2-fluorotetrahydro-1H-pyrrolizin-7a(5H)-yl)methoxy-d2)pyrido[4,3-d]pyrimidin-7-yl)naphthalen-2-ol]	> 7.30	129	0.4	–
[2H]C([2H])(Oc1nc(N2CCOC[C@H]3[C@H](F)[C@H]32)c2cnc(-c3cc(N)cc4ccc(Cl)c(C#C)c34)c(F)c2n1)[C@@]12CCCN1C[C@H](F)C2 [Example 267, 6-Chloro-5-ethynyl-4-(8-fluoro-4-((1S,7S,8S)-8-fluoro-5-oxa-2-azabicyclo[5.1.0]octan-2-yl)-2-(((2R,7aS)-2-fluorotetrahydro-1H-pyrrolizin-7a(5H)-yl)methoxy-d2)pyrido[4,3-d]pyrimidin-7-yl)naphthalen-2-amine]	> 7.30	1066	97	–
